# In the NIST ThermoML archive (doi:10.1021/je901020a):
# ± gives the expanded uncertainty stated by the source.
# Columns and labels:
# [1] = xn = mol fraction of the nth substance listed; conditions: 101 kPa, Liquid; for speed of sound: Pulse-echo method
# [2] = refractive index (Na D-line) (dimensionless); xn = mol fraction of the nth substance listed; conditions: 101 kPa, Liquid, Standard Abbe refractometry
smiles,measurement,setting,value
C1CCCCC1 [cyclohexane] + Cc1cccc(C)c1,speed of sound,"[1]; 298.15 K, x1 = 1",1255 ± 2 m/s
same,mass density,"[1]; 298.15 K, x1 = 1",773.9 ± 0.5 kg/m3
same,speed of sound,"[1]; 313.15 K, x1 = 1",1182 ± 2 m/s
same,mass density,"[1]; 313.15 K, x1 = 1",759.59 ± 0.5 kg/m3
same,refractive index,"[2]; 298.15 K, x1 = 1",1.4236 ± 0.00064
same,refractive index,"[2]; 313.15 K, x1 = 1",1.41516 ± 0.00064
"Cc1ccccc1C [1,2-dimethylbenzene] + C1CCCC1",speed of sound,"[1]; 298.15 K, x2 = 0",1350 ± 2 m/s
same,mass density,"[1]; 298.15 K, x2 = 0",875.4 ± 0.5 kg/m3
same,speed of sound,"[1]; 313.15 K, x2 = 0",1290 ± 2 m/s
same,mass density,"[1]; 313.15 K, x2 = 0",862.9 ± 0.5 kg/m3
same,refractive index,"[2]; 298.15 K, x2 = 0",1.50262 ± 0.001
same,refractive index,"[2]; 313.15 K, x2 = 0",1.49466 ± 0.001
C1CCCC1 [cyclopentane] + Cc1ccc(C)cc1,speed of sound,"[1]; 298.15 K, x1 = 0.0462",1305 ± 2 m/s
same,speed of sound,"[1]; 298.15 K, x1 = 0.0885",1300 ± 2 m/s
same,speed of sound,"[1]; 298.15 K, x1 = 0.1848",1289 ± 2 m/s
same,speed of sound,"[1]; 298.15 K, x1 = 0.2886",1277 ± 2 m/s
same,speed of sound,"[1]; 298.15 K, x1 = 0.3869",1266 ± 2 m/s
same,speed of sound,"[1]; 298.15 K, x1 = 0.4744",1256 ± 2 m/s
same,speed of sound,"[1]; 298.15 K, x1 = 0.5886",1244 ± 2 m/s
same,speed of sound,"[1]; 298.15 K, x1 = 0.6913",1233 ± 2 m/s
same,speed of sound,"[1]; 298.15 K, x1 = 0.7923",1223 ± 2 m/s
same,speed of sound,"[1]; 298.15 K, x1 = 0.8935",1213 ± 2 m/s
same,speed of sound,"[1]; 298.15 K, x1 = 0.9471",1208 ± 2 m/s
same,speed of sound,"[1]; 298.15 K, x1 = 1",1204 ± 2 m/s
same,mass density,"[1]; 298.15 K, x1 = 0.0462",852.5 ± 0.5 kg/m3
same,mass density,"[1]; 298.15 K, x1 = 0.0885",848.7 ± 0.5 kg/m3
same,mass density,"[1]; 298.15 K, x1 = 0.1848",839.6 ± 0.5 kg/m3
same,mass density,"[1]; 298.15 K, x1 = 0.2886",829.3 ± 0.5 kg/m3
same,mass density,"[1]; 298.15 K, x1 = 0.3869",818.8 ± 0.5 kg/m3
same,mass density,"[1]; 298.15 K, x1 = 0.4744",809 ± 0.6 kg/m3
same,mass density,"[1]; 298.15 K, x1 = 0.5886",795.1 ± 0.6 kg/m3
same,mass density,"[1]; 298.15 K, x1 = 0.6913",782.2 ± 0.6 kg/m3
same,mass density,"[1]; 298.15 K, x1 = 0.7923",768.9 ± 0.6 kg/m3
same,mass density,"[1]; 298.15 K, x1 = 0.8935",755 ± 0.6 kg/m3
same,mass density,"[1]; 298.15 K, x1 = 0.9471",747.4 ± 0.6 kg/m3
same,mass density,"[1]; 298.15 K, x1 = 1",740 ± 0.6 kg/m3
same,speed of sound,"[1]; 313.15 K, x1 = 0.0443",1243 ± 2 m/s
same,speed of sound,"[1]; 313.15 K, x1 = 0.0981",1236 ± 2 m/s
same,speed of sound,"[1]; 313.15 K, x1 = 0.2012",1224 ± 2 m/s
same,speed of sound,"[1]; 313.15 K, x1 = 0.2998",1211 ± 2 m/s
same,speed of sound,"[1]; 313.15 K, x1 = 0.3542",1204 ± 2 m/s
same,speed of sound,"[1]; 313.15 K, x1 = 0.4799",1189 ± 2 m/s
same,speed of sound,"[1]; 313.15 K, x1 = 0.6021",1173 ± 2 m/s
same,speed of sound,"[1]; 313.15 K, x1 = 0.703",1161 ± 2 m/s
same,speed of sound,"[1]; 313.15 K, x1 = 0.8072",1149 ± 2 m/s
same,speed of sound,"[1]; 313.15 K, x1 = 0.909",1138 ± 2 m/s
same,speed of sound,"[1]; 313.15 K, x1 = 0.9601",1133 ± 2 m/s
same,speed of sound,"[1]; 313.15 K, x1 = 1",1130 ± 2 m/s
same,mass density,"[1]; 313.15 K, x1 = 0.0443",839.7 ± 0.5 kg/m3
same,mass density,"[1]; 313.15 K, x1 = 0.0981",834.8 ± 0.5 kg/m3
same,mass density,"[1]; 313.15 K, x1 = 0.2012",824.7 ± 0.5 kg/m3
same,mass density,"[1]; 313.15 K, x1 = 0.2998",814.5 ± 0.5 kg/m3
same,mass density,"[1]; 313.15 K, x1 = 0.3542",808.5 ± 0.6 kg/m3
same,mass density,"[1]; 313.15 K, x1 = 0.4799",794.3 ± 0.6 kg/m3
same,mass density,"[1]; 313.15 K, x1 = 0.6021",779.4 ± 0.6 kg/m3
same,mass density,"[1]; 313.15 K, x1 = 0.703",766.4 ± 0.6 kg/m3
same,mass density,"[1]; 313.15 K, x1 = 0.8072",752.3 ± 0.6 kg/m3
same,mass density,"[1]; 313.15 K, x1 = 0.909",737.9 ± 0.6 kg/m3
same,mass density,"[1]; 313.15 K, x1 = 0.9601",730.6 ± 0.7 kg/m3
same,mass density,"[1]; 313.15 K, x1 = 1",725 ± 0.7 kg/m3
same,refractive index,"[2]; 298.15 K, x1 = 0.0462",1.49015 ± 0.0011
same,refractive index,"[2]; 298.15 K, x1 = 0.0885",1.48707 ± 0.0011
same,refractive index,"[2]; 298.15 K, x1 = 0.1848",1.48001 ± 0.0011
same,refractive index,"[2]; 298.15 K, x1 = 0.2886",1.47236 ± 0.0011
same,refractive index,"[2]; 298.15 K, x1 = 0.3869",1.46445 ± 0.0011
same,refractive index,"[2]; 298.15 K, x1 = 0.4744",1.45737 ± 0.0011
same,refractive index,"[2]; 298.15 K, x1 = 0.5886",1.44669 ± 0.0011
same,refractive index,"[2]; 298.15 K, x1 = 0.6913",1.4372 ± 0.0011
same,refractive index,"[2]; 298.15 K, x1 = 0.7923",1.42618 ± 0.0011
same,refractive index,"[2]; 298.15 K, x1 = 0.8935",1.41575 ± 0.0011
same,refractive index,"[2]; 298.15 K, x1 = 0.9471",1.40916 ± 0.0011
same,refractive index,"[2]; 298.15 K, x1 = 1",1.40292 ± 0.001
same,refractive index,"[2]; 313.15 K, x1 = 0.0443",1.48224 ± 0.001
same,refractive index,"[2]; 313.15 K, x1 = 0.0981",1.47862 ± 0.001
same,refractive index,"[2]; 313.15 K, x1 = 0.2012",1.47117 ± 0.00099
same,refractive index,"[2]; 313.15 K, x1 = 0.2998",1.46343 ± 0.00095
same,refractive index,"[2]; 313.15 K, x1 = 0.3542",1.4589 ± 0.00092
same,refractive index,"[2]; 313.15 K, x1 = 0.4799",1.44816 ± 0.00089
same,refractive index,"[2]; 313.15 K, x1 = 0.6021",1.43702 ± 0.00087
same,refractive index,"[2]; 313.15 K, x1 = 0.703",1.42761 ± 0.0009
same,refractive index,"[2]; 313.15 K, x1 = 0.8072",1.41693 ± 0.0011
same,refractive index,"[2]; 313.15 K, x1 = 0.909",1.4057 ± 0.0014
same,refractive index,"[2]; 313.15 K, x1 = 0.9601",1.39936 ± 0.0018
same,refractive index,"[2]; 313.15 K, x1 = 1",1.39456 ± 0.001
